Assay results reported in publication PMC4476799, “Englerin A Agonizes the TRPC4/C5 Cation Channels to Inhibit Tumor Cell Line Proliferation” (PLoS ONE, 2015).
Where two headings read alike, the source gives them in different places.

System: cancer cell lines from the cancer cell line encyclopedia (CCLE)
Test: Cell line profiling (CLiP) proliferation experiment
Format: cell-based
Design: key to Compound Activity (1-inactive;2-active): 1-inactive; 2-active; ACTIVITY_AREA: scale not given here; AMAX: unit not given here
Details: for IC50: read-out: Crossing Point; for EC50: read-out: Inflection Point
Procedure: Compound profiling experiment and data analysis was performed as previously described. Data was imported and plotted using the Tibco Spotfire DXP application. Lines were categorized as sensitive, intermediate and refractory as follows: Amax<-40 & Inflection Point <2 ~ Sensitive, Amax>-20 & Inflection Point >10 ~ Refractory, all else were called Intermediate. Cancer Cell line HG-U133 Plus 2 data was processed and normalized as described. […] Five sets of refractory cell lines were generated from the pool of refractory cell lines trying to match the lineage composition of the set of sensitive cell lines. The limma package was used as previously described to perform the statistical comparison.

[1] = cell line GA-10, haematopoietic_and_lymphoid_tissue
[2] = cell line GAMG, central_nervous_system
[3] = cell line GI-1 (central_nervous_system, gliosarcoma)
[4] = cell line GI-1, central_nervous_system
[5] = cell line GMS-10, central_nervous_system
[6] = cell line GOS-3 (central_nervous_system, astrocytoma)
[7] = cell line GOS-3, central_nervous_system
[8] = cell line GP2d, large_intestine
[9] = cell line GRANTA-519, haematopoietic_and_lymphoid_tissue
[10] = cell line H4, central_nervous_system
[11] = cell line HARA (lung, squamous_cell_carcinoma)
[12] = cell line HH, haematopoietic_and_lymphoid_tissue
[13] = cell line Hs 611.T, haematopoietic_and_lymphoid_tissue
[14] = cell line MCAS (ovary, mucinous_carcinoma)
[15] = cell line MOG-G-UVW (central_nervous_system)
[16] = cell line NB-1 (autonomic_ganglia)
[17] = cell line NB-4 (haematopoietic_and_lymphoid_tissue)
[18] = cell line SNU-119, ovary, adenocarcinoma
[19] = cell line SNU-626 (central_nervous_system, astrocytoma_Grade_IV)
[20] = cell line SNU-1079, biliary_tract

CC(C)[C@@]12C[C@@H](O)[C@@](C)(O1)[C@@H]1CC[C@@H](C)[C@H]1[C@@H]2OC(=O)/C=C/c1ccccc1 [Englerin B]
ACTIVITY_AREA [1]: 28.18
AMAX [1]: 8.5
RESPONSE [1]: REFRACTORY
ACTIVITY_AREA [2]: 50.48
AMAX [2]: -45.21
RESPONSE [2]: INTERMEDIATE
ACTIVITY_AREA (cell line GCIY, stomach): 49.94
AMAX (cell line GCIY, stomach): -70.92
RESPONSE (cell line GCIY, stomach): INTERMEDIATE
Compound Activity (1-inactive;2-active) (cell line GCT (soft_tissue, NS)): 1
ACTIVITY_AREA (cell line GCT, soft_tissue): 17.95
AMAX (cell line GCT, soft_tissue): -52.9
RESPONSE (cell line GCT, soft_tissue): INTERMEDIATE
IC50 (cell line GCT, soft_tissue): 27.1 µM
EC50 (cell line GCT, soft_tissue): 16.4 µM
Compound Activity (1-inactive;2-active) [3]: 1
IC50 [3]: > 30 µM
ACTIVITY_AREA [4]: 112.12
AMAX [4]: -25.87
RESPONSE [4]: INTERMEDIATE
IC50 [4]: > 30 µM
ACTIVITY_AREA [5]: 21.47
AMAX [5]: -32.03
RESPONSE [5]: INTERMEDIATE
Compound Activity (1-inactive;2-active) [6]: 1
IC50 [6]: > 30 µM
ACTIVITY_AREA [7]: 26.28
AMAX [7]: -31.04
RESPONSE [7]: INTERMEDIATE
IC50 [7]: > 30 µM
ACTIVITY_AREA [8]: 32.63
AMAX [8]: -48.04
RESPONSE [8]: INTERMEDIATE
ACTIVITY_AREA (cell line GR-M, skin): 48.68
AMAX (cell line GR-M, skin): -36.64
RESPONSE (cell line GR-M, skin): INTERMEDIATE
IC50 (cell line GR-M, skin): > 30 µM
IC50 (cell line GR-M): > 30 µM
ACTIVITY_AREA [9]: 14.82
AMAX [9]: 16.83
RESPONSE [9]: REFRACTORY
ACTIVITY_AREA [10]: 16.33
AMAX [10]: -3.42
RESPONSE [10]: REFRACTORY
IC50 [10]: > 30 µM
IC50 (cell line H4): > 30 µM
Compound Activity (1-inactive;2-active) [11]: 1
IC50 [11]: 15.9 µM
ACTIVITY_AREA (cell line HARA, lung): 73.57
AMAX (cell line HARA, lung): -72.32
RESPONSE (cell line HARA, lung): INTERMEDIATE
IC50 (cell line HARA, lung): 15.9 µM
Compound Activity (1-inactive;2-active) (cell line HCC-15 (lung, squamous_cell_carcinoma)): 1
ACTIVITY_AREA (cell line HCC-15, lung): 57.49
AMAX (cell line HCC-15, lung): -70.57
RESPONSE (cell line HCC-15, lung): INTERMEDIATE
Compound Activity (1-inactive;2-active) (cell line HCC-44 (lung, adenocarcinoma)): 1
RESPONSE (cell line HCC-44, lung): INTERMEDIATE
RESPONSE (cell line HCC-366, lung): REFRACTORY
Compound Activity (1-inactive;2-active) (cell line HCC-1171 (lung, non_small_cell_carcinoma)): 1
ACTIVITY_AREA (cell line HCC-1171, lung): 53.16
AMAX (cell line HCC-1171, lung): -52.03
RESPONSE (cell line HCC-1171, lung): INTERMEDIATE
IC50 (cell line HEC-59, endometrium): 19.1 µM
IC50 (cell line HEC-151, endometrium): 16.5 µM
IC50 (cell line HEC-265, endometrium): 27.1 µM
EC50 (cell line HEC-265, endometrium): 27.1 µM
Compound Activity (1-inactive;2-active) (cell line HEL 92.1.7 (haematopoietic_and_lymphoid_tissue, acute_myeloid_leukaemia)): 1
IC50 [12]: 10.1 µM
EC50 [12]: 9.47 µM
IC50 (cell line HLC-1, lung): > 30 µM
IC50 (cell line HLC-1): > 30 µM
IC50 (cell line HLF, liver): > 30 µM
EC50 (cell line HLF, liver): 16.8 µM
IC50 (cell line HLF): > 30 µM
IC50 (cell line HMC-1-8, breast): 29.7 µM
Compound Activity (1-inactive;2-active) (cell line HPB-ALL (haematopoietic_and_lymphoid_tissue, acute_lymphoblastic_T_cell_leukaemia)): 1
IC50 (cell line HT, haematopoietic_and_lymphoid_tissue): > 30 µM
IC50 (cell line HT): > 30 µM
IC50 (cell line HTK-, haematopoietic_and_lymphoid_tissue): 28.6 µM
IC50 (cell line Hs 571.T, ovary): 19.6 µM
EC50 (cell line Hs 571.T, ovary): 19.6 µM
IC50 [13]: 20.9 µM
EC50 [13]: 20.9 µM
IC50 (cell line Hs 729, soft_tissue): > 30 µM
IC50 (cell line Hs 729): > 30 µM
IC50 (cell line Hs 936.T, skin): > 30 µM
EC50 (cell line Hs 936.T, skin): 7.96 µM
IC50 (cell line Hs 936.T): > 30 µM
IC50 (cell line Hs 939.T, skin): > 30 µM
IC50 (cell line Hs 939.T): > 30 µM
IC50 (cell line Hs 940.T, skin): > 30 µM
IC50 (cell line Hs 944.T, skin): 20.6 µM
EC50 (cell line Hs 944.T, skin): 17.1 µM
IC50 (cell line HuG1-N, stomach): 10.9 µM
IC50 (cell line J82): > 30 µM
IC50 (cell line KLE): > 30 µM
Compound Activity (1-inactive;2-active) (cell line Loucy (haematopoietic_and_lymphoid_tissue, acute_lymphoblastic_T_cell_leukaemia)): 1
Compound Activity (1-inactive;2-active) (cell line MC116 (haematopoietic_and_lymphoid_tissue, B_cell_lymphoma_unspecified)): 1
Compound Activity (1-inactive;2-active) [14]: 1
IC50 [14]: > 30 µM
Compound Activity (1-inactive;2-active) (cell line MDA-MB-231 (breast, NS)): 1
Compound Activity (1-inactive;2-active) (cell line MDA-MB-453 (breast, NS)): 1
Compound Activity (1-inactive;2-active) (cell line MEC-1 (haematopoietic_and_lymphoid_tissue, chronic_lymphocytic_leukaemia-small_lymphocytic_lymphoma)): 1
IC50 (cell line MEL-HO (skin)): > 30 µM
IC50 (cell line MEL-HO): > 30 µM
IC50 (cell line MHH-NB-11 (autonomic_ganglia)): 26.9 µM
IC50 (cell line MJ (haematopoietic_and_lymphoid_tissue)): 9.13 µM
IC50 [15]: > 30 µM
EC50 [15]: 10.2 µM
IC50 (cell line MOG-G-UVW): > 30 µM
Compound Activity (1-inactive;2-active) (cell line MOLT-16 (haematopoietic_and_lymphoid_tissue, acute_lymphoblastic_T_cell_leukaemia)): 1
Compound Activity (1-inactive;2-active) (cell line MONO-MAC-6 (haematopoietic_and_lymphoid_tissue, acute_myeloid_leukaemia)): 1
IC50 (cell line MOR/CPR (lung)): 28.3 µM
EC50 (cell line MOR/CPR (lung)): 12.9 µM
EC50 (cell line MOR/CPR): 12.9 µM
Compound Activity (1-inactive;2-active) (cell line MeWo (skin, NS)): 1
IC50 (cell line Mel285 (eye)): > 30 µM
EC50 (cell line Mel285 (eye)): 13.8 µM
IC50 (cell line Mel285): > 30 µM
IC50 [16]: 22.3 µM
EC50 [16]: 22.3 µM
IC50 [17]: 18.5 µM
EC50 [17]: 11.5 µM
Compound Activity (1-inactive;2-active) (cell line NCI-H1048 (lung, small_cell_carcinoma)): 1
Compound Activity (1-inactive;2-active) (cell line NCI-H1299 (lung, non_small_cell_carcinoma)): 1
IC50 (cell line NCI-H1341 (lung)): 15 µM
EC50 (cell line NCI-H1341 (lung)): 15 µM
Compound Activity (1-inactive;2-active) (cell line NCI-H1355 (lung, adenocarcinoma)): 1
Compound Activity (1-inactive;2-active) (cell line NCI-H1792 (lung, adenocarcinoma)): 1
Compound Activity (1-inactive;2-active) (cell line NCI-H2073 (lung, adenocarcinoma)): 1
IC50 (cell line NCI-H2106): > 30 µM
IC50 (cell line NCI-H2330): > 30 µM
IC50 (cell line OC 316): > 30 µM
IC50 (cell line OMM2.3): > 30 µM
EC50 (cell line OMM2.3): 13.6 µM
IC50 (cell line OMM2.5): > 30 µM
IC50 (cell line OV7): > 30 µM
IC50 (cell line OVISE): 17.9 µM
IC50 (cell line PC-3): 25.9 µM
IC50 (cell line PE/CA-PJ41 (clone D2)): 25.8 µM
IC50 (cell line PEER): 13.5 µM
IC50 (cell line RCC10RGB): > 30 µM
IC50 (cell line RCH-ACV): 15.6 µM
EC50 (cell line RCH-ACV): 12.1 µM
IC50 (cell line RD): > 30 µM
IC50 (cell line RERF-LC-AI): > 30 µM
EC50 (cell line RERF-LC-AI): 17.9 µM
IC50 (cell line RI-1): 9.99 µM
EC50 (cell line RI-1): 9.99 µM
IC50 (cell line RKN): > 30 µM
IC50 (cell line RKO): 14.7 µM
EC50 (cell line RKO): 13.1 µM
IC50 (cell line RL): 12.5 µM
EC50 (cell line RL): 11.8 µM
IC50 (cell line RMUG-S): > 30 µM
IC50 (cell line Reh): 21.5 µM
EC50 (cell line Reh): 21.5 µM
IC50 (cell line SEM, haematopoietic_and_lymphoid_tissue, acute_lymphoblastic_B_cell_leukaemia): 14.2 µM
Compound Activity (1-inactive;2-active) (cell line SF-295 (central_nervous_system, astrocytoma_Grade_IV)): 1
IC50 (cell line SH-4, skin): > 30 µM
Compound Activity (1-inactive;2-active) (cell line SK-N-SH (autonomic_ganglia, NS)): 1
IC50 (cell line SNG-M, endometrium, adenocarcinoma): > 30 µM
IC50 [18]: > 30 µM
EC50 [18]: 27.2 µM
Compound Activity (1-inactive;2-active) (cell line SNU-475 (liver, hepatocellular_carcinoma)): 1
Compound Activity (1-inactive;2-active) [19]: 1
IC50 [19]: > 30 µM
IC50 (cell line SNU-626, central_nervous_system, astrocytoma_Grade_IV): > 30 µM
IC50 (cell line SNU-738, central_nervous_system, oligodendroglioma): > 30 µM
IC50 [20]: 25.7 µM
EC50 [20]: 25.7 µM
Compound Activity (1-inactive;2-active) (cell line SW48 (large_intestine, adenocarcinoma)): 1
Compound Activity (1-inactive;2-active) (cell line SW 1783 (central_nervous_system, astrocytoma_Grade_III)): 1
Compound Activity (1-inactive;2-active) (cell line THP-1 (haematopoietic_and_lymphoid_tissue, acute_myeloid_leukaemia)): 1
Compound Activity (1-inactive;2-active) (compound-level call): 1
Compound Activity (1-inactive;2-active) (compound-level call printed on every cell line row): 1
Compound Activity (1-inactive;2-active) (compound-level call, the same on every cell line's row): 1
Compound Activity (1-inactive;2-active) (compound-level flag): 1
Compound Activity (1-inactive;2-active) (compound-level flag repeated on every cell line row): 1
Compound Activity (1-inactive;2-active) (compound-level flag, printed on every cell line row): 1
Compound Activity (1-inactive;2-active) (flag of the compound): 1
Compound Activity (1-inactive;2-active) (overall call per compound): 1
Compound Activity (1-inactive;2-active) (overall class of the compound): 1
Compound Activity (1-inactive;2-active) (printed on every cell line row, same value for the compound throughout): 1
